What was measured:
[1] = molecular target: Cyclin-dependent kinase/G2/mitotic-specific cyclin- 1 (Homo sapiens, UniProt P06493); assay: Z-LYTE Enzymatic Kinase Assay
Procedure: Enzyme activity was assayed using Z-LYTE Enzymatic Kinase Assay format (Invitrogen Corp., Carlsbad, CA) in the SelectScreen Kinase Profiling Service (Invitrogen Discovery Sciences, Madison, WI).

Aurora kinase A = molecular target: T1, Aurora kinase A (Homo sapiens, UniProt O14965); assay: Aurora Kinase SPA Assay
T1 sequence (O14965 whole entry): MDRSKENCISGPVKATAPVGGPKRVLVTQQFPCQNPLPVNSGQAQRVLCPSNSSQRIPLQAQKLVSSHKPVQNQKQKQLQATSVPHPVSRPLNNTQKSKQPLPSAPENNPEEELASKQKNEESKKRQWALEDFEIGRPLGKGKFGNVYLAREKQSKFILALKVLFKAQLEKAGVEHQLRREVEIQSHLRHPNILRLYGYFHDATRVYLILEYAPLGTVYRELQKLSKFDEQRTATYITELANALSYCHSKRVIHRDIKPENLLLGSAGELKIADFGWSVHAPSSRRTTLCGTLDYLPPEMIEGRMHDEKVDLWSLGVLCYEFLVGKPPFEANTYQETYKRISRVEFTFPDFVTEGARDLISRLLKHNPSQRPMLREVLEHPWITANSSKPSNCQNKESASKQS
Procedure: The biochemical activity of compounds was determined by incubation with Aurora A and substrates in the presence ATP/[gamma-33P] ATP. After incubation, the reaction was stopped and the phosphorylated substrate was separated from nonincorporated radioactive ATP using SPA beads (Amersham Pharmacia Biotech), counted using TopCount (Packard) to measure substrate-incorporated phosphate.

Chain of Cyclin-dependent kinase/G2/mitotic-specific cyclin- 1 (P06493 whole entry): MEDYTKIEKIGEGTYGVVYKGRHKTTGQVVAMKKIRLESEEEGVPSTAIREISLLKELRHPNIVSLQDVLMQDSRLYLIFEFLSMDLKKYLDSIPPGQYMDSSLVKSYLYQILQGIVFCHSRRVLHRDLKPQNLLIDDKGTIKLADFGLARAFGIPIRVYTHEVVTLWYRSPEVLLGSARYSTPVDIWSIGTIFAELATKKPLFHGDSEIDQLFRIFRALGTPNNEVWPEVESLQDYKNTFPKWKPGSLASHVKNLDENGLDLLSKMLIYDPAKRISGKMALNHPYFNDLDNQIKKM
Chain of Cyclin-dependent kinase/G2/mitotic-specific cyclin- 1 (P14635 whole entry, further chain): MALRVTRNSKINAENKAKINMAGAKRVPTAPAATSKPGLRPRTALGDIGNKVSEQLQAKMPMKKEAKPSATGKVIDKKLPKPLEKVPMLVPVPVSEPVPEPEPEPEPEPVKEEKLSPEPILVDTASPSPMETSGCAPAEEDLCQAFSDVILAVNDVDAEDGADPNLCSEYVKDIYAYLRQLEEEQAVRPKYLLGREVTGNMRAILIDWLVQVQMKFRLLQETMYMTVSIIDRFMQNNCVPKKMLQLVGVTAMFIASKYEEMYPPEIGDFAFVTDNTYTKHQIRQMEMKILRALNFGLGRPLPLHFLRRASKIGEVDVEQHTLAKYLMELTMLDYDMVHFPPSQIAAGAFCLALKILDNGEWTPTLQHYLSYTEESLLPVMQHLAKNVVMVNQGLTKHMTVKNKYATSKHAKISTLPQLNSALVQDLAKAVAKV

Compound	IC50 [1]	IC50 (Aurora kinase A; pH 7, 22 °C)	IC50 (Aurora kinase A)
CNC(=O)c1ccc(Nc2ncc(Br)s2)cc1 [4-[(5-bromo-1,3-thiazol-2-yl)amino]-N-methylbenzamide]	4.27 µM		
O=C(O)c1ccc(Nc2ncc(Br)s2)cc1 [4-[(5-bromo-1,3-thiazol-2-yl)amino]benzoic acid]	> 10 µM	0.079 µM	
Fc1ccc(Nc2ncc(Br)s2)cc1 [5-bromo-N-(4-fluorophenyl)-1,3-thiazol-2-amine]	> 10 µM	0.4 µM	
O=C(Nc1ccc(Nc2ncc(Br)s2)cc1)c1ccccc1 [N-{4-[(5-bromo-1,3-thiazol-2-yl)amino]phenyl}benzamide]		9.2 µM	

Further lines, results first:

IC50 [1]	IC50 (Aurora kinase A; pH 7, 22 °C)	IC50 (Aurora kinase A)	Compound
		2.25 µM	CCOC(=O)c1cccc(Nc2ncc(Br)s2)c1 [ethyl 3-[(5-bromo-1,3-thiazol-2-yl)amino]benzoate]
	5.7 µM		CCOC(=O)c1ccc(Nc2ncc(Br)s2)cc1 [ethyl 4-[(5-bromo-1,3-thiazol-2-yl)amino]benzoate]

— BindingDB's records for doi:10.1021/cb700200w (Novartis, 2008)
